Test results from paper PMC6753678, “Fueling Open Innovation for Malaria Transmission-Blocking Drugs: Hundreds of Molecules Targeting Early Parasite Mosquito Stages” (Frontiers in Microbiology, 2019).
Like-named read-outs stand apart in the source and are kept apart here.

Assays:
HepG2 cells [1] = conditions: ref Almela et al 2016, cited from earlier work; for HepG2 cytoxicity (Pf GCT ATP screen): HepG2 value reported with Pf GCT ATP screen
[2] = system: P. falciparum late stage (stages IV-V) gametocytes; set-up: method as in Almela et al 2016; conditions: ref Almela et al 2016, read-out: Pf GCT ATP IC50, cited from earlier work
[3] = system: P. falciparum late stage (stages IV-V) gametocytes; experiment: P. falciparum late stage gametocyte ATP depletion assay (Pf GC-ATP); conditions: 1: YES, 0: NO
[4] = system: P. berghei ookinete development; conditions: primary screen at 1 μM
HepG2 cells [5] = experiment: HepG2 cytotoxicity assay; conditions: HepG2 cytotoxicity unified across screens; >25 set to 25.00
Method in brief: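 Percent inhibition derived from fluorescent viability readout, normalised to DMSO (negative) and 50 μM doxorubicin (positive). Compound incubation lasted 48 h at 37°C, 5% CO2, with 2,500 HepG2 cells/well in MEM plus 10% FBS and 1% NEAA.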

[6] = P. falciparum late stage gametocyte ATP assay, TCAMS screen
[7] = >10-fold selectivity over cytotoxicity

SMILES | IC50 [2, 6] | Is compound selective in assay? Pf GC-ATP active? [3, 7] | Unified cytotox (HepG2 cells [5]) | further results
O=C(Nc1nc(-c2ccccn2)cc2ccccc12)c1cccc(Cl)c1 [TCMDC-123886] |  |  |  | HepG2 cytoxicity (Pf GCT ATP screen) (HepG2 cells [1]): >25 µM; IC50 ([2]; TCAMS library screen): 500 nM; Is compound selective in assay? Pf GC-ATP active? [3]: 1 (1: YES)
Cc1ccc(C)c(NC(=O)CC2C(=O)N(c3ccccc3)C(=S)N2Cc2ccco2)c1 (stereo not shown) [TCMDC-124000] |  |  |  | HepG2 cytoxicity (Pf GCT ATP screen) (HepG2 cells [1]): >10 µM; IC50 ([2]; TCAMS library screen): 1300 nM; Is compound selective in assay? Pf GC-ATP active? [3]: 1 (1: YES)
Cc1cc(Nc2ccncc2)n2nc(C)c(-c3ccc(Cl)cc3)c2n1 [TCMDC-124478] |  |  |  | HepG2 cytoxicity (Pf GCT ATP screen) (HepG2 cells [1]): >50 µM; IC50 ([2]; TCAMS library screen): 910 nM; Is compound selective in assay? Pf GC-ATP active? [3]: 1 (1: YES)
CCc1nn2c(Nc3ccncc3)cc(C)nc2c1-c1ccccc1 [TCMDC-124917] |  |  |  | HepG2 cytoxicity (HepG2 cells [1]; HepG2 data listed with Pf GCT ATP screen): >25 µM; IC50 ([2]; P. falciparum late stage gametocyte ATP assay): 1900 nM; Is compound selective in assay? Pf GC-ATP active? [3]: 1 (1: YES)
Cl.N=C(N)NN=Cc1c2ccccc2c(Cl)c2cc(Cl)ccc12 [TCMDC-137903] | 2350 nM | 0 (0: NO) | 7.50 µM | % inhibition, Replicate A [4]: 53.67%; % inhibition, Replicate B [4]: 40.83%
CC(C)CNCc1ccc(-c2cccc(CN(CCN(C)C)C(=O)CCC3CCCC3)c2)cc1.O=C(O)C(F)(F)F [TCMDC-140553] | 540 nM | 1 (1: YES) | 5.50 µM | 
CC(C)CNCc1cccc(-c2cccc(CN(CCCN3CCN(C)CC3)C(=O)CCC3CCCC3)c2)c1.O=C(O)C(F)(F)F [TCMDC-140554] | 600 nM | 0 (0: NO) | 4.55 µM | 
CN1CCN(CCCN(Cc2cccc(-c3cccc(CNC4CCCC4)c3)c2)C(=O)CCC2CCCC2)CC1.O=C(O)C(F)(F)F [TCMDC-140555] | 810 nM | 0 (0: NO) | 7.50 µM | 
CC(C)CNCc1ccc(-c2ccc(CN(CCCN3CCN(C)CC3)C(=O)CCC3CCCC3)cc2)cc1.O=C(O)C(F)(F)F [TCMDC-140559] | 540 nM | 0 (0: NO) | 5.39 µM | 
CN1CCN(CCCN(Cc2ccc(-c3ccc(CNC4CCCC4)cc3)cc2)C(=O)CCC2CCCC2)CC1.O=C(O)C(F)(F)F [TCMDC-140560] | 530 nM | 1 (1: YES) | 6.00 µM | 
O=C(O)C(F)(F)F.O=C(c1cccs1)N(Cc1cccc(-c2ccc(CNC3CCCC3)cc2)c1)C1CCN(Cc2ccccc2)CC1 [TCMDC-140567] | 850 nM | 0 (0: NO) | 7.10 µM | 
CC(C)CNCc1cccc(-c2cccc(CN(CCN(C)C)C(=O)Nc3ccccc3)c2)c1.O=C(O)C(F)(F)F [TCMDC-140592] | 660 nM | 1 (1: YES) | 15.78 µM | 
CN1CCN(CCCN(Cc2ccc(-c3cccc(CNC4CCCC4)c3)cc2)C(=O)Nc2ccccc2)CC1.O=C(O)C(F)(F)F [TCMDC-140605] | 180 nM | 1 (1: YES) | 14.26 µM | 
O=C(NCCc1ccccc1)N(Cc1cccc(-c2ccc(CNC3CCCC3)cc2)c1)C1CCN(Cc2ccccc2)CC1.O=C(O)C(F)(F)F [TCMDC-140618] | 1310 nM | 0 (0: NO) | 7.42 µM | 
CN(C)CCN(Cc1ccccc1-c1ccc(CNCCc2ccccc2)cc1)C(=O)NC1CCCCC1.O=C(O)C(F)(F)F [TCMDC-140626] | 350 nM | 1 (1: YES) | 6.40 µM | 
CC(C)CNCc1ccc(-c2cccc(CN(C(=O)NC3CCCCC3)C3CCN(Cc4ccccc4)CC3)c2)cc1.O=C(O)C(F)(F)F [TCMDC-140628] | 1660 nM | 0 (0: NO) | 1.81 µM | 

SMILES | IC50 [2, 6] | Is compound selective in assay? Pf GC-ATP active? [3, 7] | Unified cytotox (HepG2 cells [5]) | further results
CC(C)CNCc1cccc(-c2cccc(CN(CCCN3CCN(C)CC3)C(=O)NC3CCCCC3)c2)c1.O=C(O)C(F)(F)F [TCMDC-140633] | 1780 nM | 0 (0: NO) | 16.75 µM | 
CN1CCC(N(Cc2ccc(-c3ccc(Cl)cc3)cc2)C(=O)Cn2c(CCc3cccc(F)c3F)cc(=O)c3ccccc32)CC1.O=C(O)C(O)C(O)C(=O)O [TCMDC-141357] | 3430 nM | 0 (0: NO) | 6.70 µM | % inhibition, Replicate A [4]: 22.22%; % inhibition, Replicate B [4]: 55.97%
O=C(C1CC1c1ccccc1)N(Cc1ccc(-c2ccc(CNCCc3ccccc3)cc2)cc1)C1CCNCC1.O=C(O)C(F)(F)F (stereo not shown) [TCMDC-141443] | 390 nM | 1 (1: YES) | 6.70 µM | 
O=C(CC1CCCC1)N(Cc1ccc(-c2ccc(CNC3Cc4ccccc4C3)cc2)cc1)CC1CCCCN1.O=C(O)C(F)(F)F (stereo not shown) [TCMDC-141446] | 1000 nM | 0 (0: NO) | 6.47 µM | 
CC(C)CC(=O)N(Cc1ccc(-c2ccc(CNC3Cc4ccccc4C3)cc2)cc1)C1CCNCC1.O=C(O)C(F)(F)F [TCMDC-141449] | 630 nM | 0 (0: NO) | 6.20 µM | 
O=C(COc1ccccc1)N(Cc1ccc(-c2ccc(CNC3Cc4ccccc4C3)cc2)cc1)C1CCNCC1.O=C(O)C(F)(F)F [TCMDC-141450] | 990 nM | 0 (0: NO) | 7.80 µM | 
CN1CCC(C(=O)N(Cc2ccc(-c3ccc(CNCCc4ccccc4)cn3)cc2)C2CCN(Cc3ccccc3)CC2)CC1.O=C(O)C(F)(F)F [TCMDC-141552] | 900 nM | 1 (1: YES) | 9.27 µM | 
CCN(CC)CCN(Cc1ccc(-c2ccc(C(F)(F)F)cc2)cc1)C(=O)c1ccc(-c2ccc(NC(=O)OC)cc2C)cc1 [TCMDC-141558] | 3710 nM | 0 (0: NO) | 5.40 µM | 
CCN(CC)CCCNc1ncc2c(-c3ccc(NC(=O)Nc4cc(C(F)(F)F)ccc4F)cc3)nn(C)c2n1.O=C(O)C(F)(F)F [TCMDC-141583] | 3480 nM | 0 (0: NO) | 9.50 µM | 
CCN(Cc1ccc(-c2ccc(C(F)(F)F)cc2)cc1)C(=O)Cn1c(SCc2cccc(F)c2F)cc(=O)c2cc(CN3CCCCC3)ccc21.Cl [TCMDC-141592] | 2340 nM | 0 (0: NO) | 4.20 µM | 
CN(C)CCCNc1nccc(N(C)c2ccc(NC(=O)Nc3cc(C(F)(F)F)ccc3F)cc2)n1.O=C(O)C(F)(F)F [TCMDC-141633] | 1000 nM | 1 (1: YES) | 17.30 µM | 
O=C(Nc1cccc(Oc2ccccc2)c1)N[C@H]1CCN(Cc2ccc(OCCCN3CCCCC3)cc2)C1 [TCMDC-141785] | 1130 nM | 0 (0: NO) | 3.52 µM | 
Cc1ccc2nc(C)cc(N/N=C/c3ccc([N+](=O)[O-])cc3)c2c1 [TCMDC-142070] | 9410 nM | 0 (0: NO) | 0.19 µM | 
COc1ccc2c(=NN=Cc3ccc(OC)c4ccccc34)cc(C)[nH]c2c1 [TCMDC-142218] | 770 nM | 1 (1: YES) | 7.86 µM | 
Nc1cc(C=Cc2ccc([N+](=O)[O-])o2)nc2ccccc12 [TCMDC-142295] | 200 nM | 1 (1: YES) | 11.70 µM | 
Nc1cc(/C=C/c2ccc([N+](=O)[O-])s2)nc2ccccc12 [TCMDC-142296] | 600 nM | 1 (1: YES) | 7.60 µM | 
